# In PubChem BioAssay AID1963973 (Molecular Pharmacology Branch, DTP, NCI, 2024):
# Test system: 883617-216-R-J1-PDC tumor spheroids, viability
# Experiment: Anticancer human tumor 883617-216-R-J1-PDC patient-derived bladder carcinoma cell line growth inhibition [PI3K]
# Conditions: spheroids with HUVEC and MSC; for IC50: curve of first compound; for viability, T/C: stronger effect = lower value
# Outline: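 Combination activity was assessed by viability in multicellular tumor spheroids carrying HUVEC and MSC components. Agents were tested with PI3K inhibitors from a Cmax-based top dose (or 10 microM) downward in half-log increments.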
# [1] = second compound 0.0316 µM, first compound 0.000316 µM
# [2] = second compound 0.0316 µM, first compound 0.001 µM
# [3] = second compound 0.0316 µM, first compound 0.00316 µM
# [4] = second compound 0.0316 µM, first compound 0.01 µM
# [5] = second compound 0.0316 µM, first compound 0.0316 µM
# [6] = second compound 0.0316 µM, first compound 0.1 µM
# [7] = second compound 0.1 µM, first compound 0.000316 µM
# [8] = second compound 0.1 µM, first compound 0.001 µM
# [9] = second compound 0.1 µM, first compound 0.00316 µM
# [10] = second compound 0.1 µM, first compound 0.01 µM
# [11] = second compound 0.1 µM, first compound 0.0316 µM
# [12] = second compound 0.1 µM, first compound 0.1 µM
# [13] = second compound 0.316 µM, first compound 0.000316 µM
# [14] = second compound 0.316 µM, first compound 0.001 µM
# [15] = second compound 0.316 µM, first compound 0.00316 µM
# [16] = second compound 0.316 µM, first compound 0.01 µM
# [17] = second compound 0.316 µM, first compound 0.0316 µM
# [18] = second compound 0.316 µM, first compound 0.1 µM
# [19] = second compound 1 µM, first compound 0.000316 µM
# [20] = second compound 1 µM, first compound 0.001 µM
# [21] = second compound 1 µM, first compound 0.00316 µM
# [22] = second compound 1 µM, first compound 0.01 µM
# [23] = second compound 1 µM, first compound 0.0316 µM
# [24] = second compound 1 µM, first compound 0.1 µM
# [25] = second compound 3.16 µM, first compound 0.000316 µM
# [26] = second compound 3.16 µM, first compound 0.001 µM
# [27] = second compound 3.16 µM, first compound 0.00316 µM
# [28] = second compound 3.16 µM, first compound 0.01 µM
# [29] = second compound 3.16 µM, first compound 0.0316 µM
# [30] = second compound 3.16 µM, first compound 0.1 µM
# [31] = second compound 10 µM, first compound 0.000316 µM
# [32] = second compound 10 µM, first compound 0.001 µM
# [33] = second compound 10 µM, first compound 0.00316 µM
# [34] = second compound 10 µM, first compound 0.01 µM
# [35] = second compound 10 µM, first compound 0.0316 µM
# [36] = second compound 10 µM, first compound 0.1 µM
# [37] = second compound 0.0316 µM, first compound 0.316 µM
# [38] = second compound 0.0316 µM, first compound 1 µM
# [39] = second compound 0.0316 µM, first compound 3.16 µM
# [40] = second compound 0.0316 µM, first compound 10 µM
# [41] = second compound 0.1 µM, first compound 0.316 µM
# [42] = second compound 0.1 µM, first compound 1 µM
# [43] = second compound 0.1 µM, first compound 3.16 µM
# [44] = second compound 0.1 µM, first compound 10 µM
# [45] = second compound 0.316 µM, first compound 0.316 µM
# [46] = second compound 0.316 µM, first compound 1 µM
# [47] = second compound 0.316 µM, first compound 3.16 µM
# [48] = second compound 0.316 µM, first compound 10 µM
# [49] = second compound 1 µM, first compound 0.316 µM
# [50] = second compound 1 µM, first compound 1 µM
# [51] = second compound 1 µM, first compound 3.16 µM
# [52] = second compound 1 µM, first compound 10 µM
# [53] = second compound 3.16 µM, first compound 0.316 µM
# [54] = second compound 3.16 µM, first compound 1 µM
# [55] = second compound 3.16 µM, first compound 3.16 µM
# [56] = second compound 3.16 µM, first compound 10 µM
# [57] = second compound 10 µM, first compound 0.316 µM
# [58] = second compound 10 µM, first compound 1 µM
# [59] = second compound 10 µM, first compound 3.16 µM
# [60] = second compound 10 µM, first compound 10 µM
# 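Also: spheroids exposed to agents for 7 days before the viability read.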
smiles,measurement,setting,value
CC(=O)c1c(C)c2cnc(Nc3ccc(N4CCNCC4)cn3)nc2n(C2CCCC2)c1=O + Cc1nc(NC(=O)N2CCCC2C(N)=O)sc1-c1ccnc(C(C)(C)C(F)(F)F)c1,IC50,second compound 0.0316 µM,> 0.1 µM
same,IC50,second compound 0.1 µM,0.0237 µM
same,IC50,second compound 0.316 µM,< 0.000316 µM
same,IC50,second compound 1 µM,< 0.000316 µM
same,IC50,second compound 3.16 µM,< 0.000316 µM
same,IC50,second compound 10 µM,< 0.000316 µM
same,"viability, T/C",[1],81%
same,"viability, T/C",[2],70.3%
same,"viability, T/C",[3],82.5%
same,"viability, T/C",[4],68.1%
same,"viability, T/C",[5],58.7%
same,"viability, T/C",[6],50.3%
same,"viability, T/C",[7],65.4%
same,"viability, T/C",[8],63.5%
same,"viability, T/C",[9],62.8%
same,"viability, T/C",[10],57.8%
same,"viability, T/C",[11],47.4%
same,"viability, T/C",[12],37.6%
same,"viability, T/C",[13],47.7%
same,"viability, T/C",[14],43.8%
same,"viability, T/C",[15],33%
same,"viability, T/C",[16],43.2%
same,"viability, T/C",[17],34.5%
same,"viability, T/C",[18],26.3%
same,"viability, T/C",[19],26.7%
same,"viability, T/C",[20],31.5%
same,"viability, T/C",[21],25.7%
same,"viability, T/C",[22],23.3%
same,"viability, T/C",[23],21.1%
same,"viability, T/C",[24],17.2%
same,"viability, T/C",[25],12.9%
same,"viability, T/C",[26],11.8%
same,"viability, T/C",[27],13.6%
same,"viability, T/C",[28],14.4%
same,"viability, T/C",[29],11.7%
same,"viability, T/C",[30],11.6%
same,"viability, T/C",[31],8.2%
same,"viability, T/C",[32],6.55%
same,"viability, T/C",[33],6.27%
same,"viability, T/C",[34],7.44%
same,"viability, T/C",[35],6.18%
same,"viability, T/C",[36],5.86%
CC(C)n1nc(-c2ccc3oc(N)nc3c2)c2c(N)ncnc21 + Cc1nc(NC(=O)N2CCCC2C(N)=O)sc1-c1ccnc(C(C)(C)C(F)(F)F)c1,IC50,second compound 0.0316 µM,0.0183 µM
same,IC50,second compound 0.1 µM,0.0126 µM
same,IC50,second compound 0.316 µM,0.000358 µM
same,IC50,second compound 1 µM,< 0.000316 µM
same,IC50,second compound 3.16 µM,< 0.000316 µM
same,IC50,second compound 10 µM,< 0.000316 µM
same,"viability, T/C",[1],79.6%
same,"viability, T/C",[2],72.5%
same,"viability, T/C",[3],69.5%
same,"viability, T/C",[4],60.3%
same,"viability, T/C",[5],41.1%
same,"viability, T/C",[6],18.4%
same,"viability, T/C",[7],61.9%
same,"viability, T/C",[8],66.6%
same,"viability, T/C",[9],62.1%
same,"viability, T/C",[10],52.9%
same,"viability, T/C",[11],35.5%
same,"viability, T/C",[12],15.7%
same,"viability, T/C",[13],47.2%
same,"viability, T/C",[14],54%
same,"viability, T/C",[15],45.2%
same,"viability, T/C",[16],40.6%
same,"viability, T/C",[17],25.9%
same,"viability, T/C",[18],12.7%
same,"viability, T/C",[19],29.1%
same,"viability, T/C",[20],24.7%
same,"viability, T/C",[21],38.1%
same,"viability, T/C",[22],22.4%
same,"viability, T/C",[23],16.4%
same,"viability, T/C",[24],9.37%
same,"viability, T/C",[25],16%
same,"viability, T/C",[26],15.7%
same,"viability, T/C",[27],12.4%
same,"viability, T/C",[28],17.6%
same,"viability, T/C",[29],9.92%
same,"viability, T/C",[30],4.95%
same,"viability, T/C",[31],7.13%
same,"viability, T/C",[32],7.02%
same,"viability, T/C",[33],8.33%
same,"viability, T/C",[34],6.52%
same,"viability, T/C",[35],5.75%
same,"viability, T/C",[36],2.9%
CC1(C)CCC(CN2CCN(c3ccc(C(=O)NS(=O)(=O)c4ccc(NCC5CCOCC5)c([N+](=O)[O-])c4)c(Oc4cnc5[nH]ccc5c4)c3)CC2)=C(c2ccc(Cl)cc2)C1 + Cc1nc(NC(=O)N2CCCC2C(N)=O)sc1-c1ccnc(C(C)(C)C(F)(F)F)c1,IC50,second compound 0.0316 µM,5.05 µM
same,IC50,second compound 0.1 µM,4.46 µM
same,IC50,second compound 0.316 µM,< 0.0316 µM
same,IC50,second compound 1 µM,< 0.0316 µM
same,IC50,second compound 3.16 µM,< 0.0316 µM
same,IC50,second compound 10 µM,< 0.0316 µM
same,"viability, T/C",[5],85.3%
same,"viability, T/C",[6],84%
same,"viability, T/C",[37],87.7%
same,"viability, T/C",[38],81.2%
same,"viability, T/C",[39],81.8%
same,"viability, T/C",[40],3.63%
same,"viability, T/C",[11],66.6%
same,"viability, T/C",[12],66.1%
same,"viability, T/C",[41],79.5%
same,"viability, T/C",[42],67.3%
same,"viability, T/C",[43],71.3%
same,"viability, T/C",[44],3.02%
same,"viability, T/C",[17],47.4%
same,"viability, T/C",[18],45%
same,"viability, T/C",[45],51.2%
same,"viability, T/C",[46],52.6%
same,"viability, T/C",[47],44.5%
same,"viability, T/C",[48],4.5%
same,"viability, T/C",[23],41.3%
same,"viability, T/C",[24],28.9%
same,"viability, T/C",[49],29.4%
same,"viability, T/C",[50],33.2%
same,"viability, T/C",[51],30.7%
same,"viability, T/C",[52],3.44%
same,"viability, T/C",[29],14.8%
same,"viability, T/C",[30],14.4%
same,"viability, T/C",[53],17.1%
same,"viability, T/C",[54],14.3%
same,"viability, T/C",[55],14.7%
same,"viability, T/C",[56],2.57%
same,"viability, T/C",[35],7.93%
same,"viability, T/C",[36],12.9%
same,"viability, T/C",[57],7.45%
same,"viability, T/C",[58],8.13%
same,"viability, T/C",[59],7.77%
same,"viability, T/C",[60],1.74%
CCCS(=O)(=O)Nc1ccc(F)c(C(=O)c2c[nH]c3ncc(-c4ccc(Cl)cc4)cc23)c1F + Cc1nc(NC(=O)N2CCCC2C(N)=O)sc1-c1ccnc(C(C)(C)C(F)(F)F)c1,IC50,second compound 0.0316 µM,4.36 µM
same,IC50,second compound 0.1 µM,4.38 µM
same,IC50,second compound 0.316 µM,0.858 µM
same,IC50,second compound 1 µM,< 0.0316 µM
same,IC50,second compound 3.16 µM,< 0.0316 µM
same,IC50,second compound 10 µM,< 0.0316 µM
same,"viability, T/C",[5],75.6%
same,"viability, T/C",[6],83.1%
same,"viability, T/C",[37],88.1%
same,"viability, T/C",[38],92.9%
same,"viability, T/C",[39],66.4%
same,"viability, T/C",[40],7.45%
same,"viability, T/C",[11],84.8%
same,"viability, T/C",[12],78.3%
same,"viability, T/C",[41],65%
same,"viability, T/C",[42],74%
same,"viability, T/C",[43],66%
same,"viability, T/C",[44],9.98%
same,"viability, T/C",[17],53.6%
same,"viability, T/C",[18],55.1%
same,"viability, T/C",[45],51.4%
same,"viability, T/C",[46],49.2%
same,"viability, T/C",[47],39.8%
same,"viability, T/C",[48],10.4%
same,"viability, T/C",[23],33.3%
same,"viability, T/C",[24],26.5%
same,"viability, T/C",[49],34.3%
same,"viability, T/C",[50],39.8%
same,"viability, T/C",[51],35.9%
same,"viability, T/C",[52],7.76%
same,"viability, T/C",[29],16.6%
same,"viability, T/C",[30],16.3%
same,"viability, T/C",[53],17.8%
same,"viability, T/C",[54],19.3%
same,"viability, T/C",[55],16.6%
same,"viability, T/C",[56],7.14%
same,"viability, T/C",[35],7.33%
same,"viability, T/C",[36],7.82%
same,"viability, T/C",[57],7.92%
same,"viability, T/C",[58],10%
same,"viability, T/C",[59],9.86%
same,"viability, T/C",[60],4.55%
